Results: article PMC13114161 (Antibiotics, 2026)
Like-named read-outs stand apart in the source and are kept apart here.

Columns and labels:
P. aeruginosa ATCC 27853 [1] = assay: MIC and levofloxacin potentiation (broth microdilution); format: cell-based, Pseudomonas aeruginosa; conditions: for MIC: Pseudomonas aeruginosa, ATCC27853
Procedure: Once synthesized, the three fluorinated EPI analogs (TXA11114, TXA11164 and TXA12027) were first assayed for their antibacterial activities against P. aeruginosa ATCC 27853. They had MICs of 100, >200 and 100 µg/mL, respectively (Table 1). […] Particularly, the inactivity of TXA11164 was surprising as the pKa values of both the amines are similar to that in TXA11114.
(§1) MIC assays for potentiation of antimicrobial activity against P. aeruginosa were performed as described previously.

[2] = test system: multidrug-resistant P. aeruginosa clinical isolates from Walter Reed Army Hospital; assay: Levofloxacin MIC potentiation, WRAIR MRSN isolates; format: cell-based, Pseudomonas aeruginosa; conditions: Pseudomonas aeruginosa
Procedure: as §1

[3] = test system: P. aeruginosa ATCC 27853 ompH mutants EPIR32, EPIR36, EPIR38; assay: microbe, parasite or virus in culture; format: cell-based, Pseudomonas aeruginosa; conditions: Pseudomonas aeruginosa
Procedure: as §1

[4] = test system: P. aeruginosa DA7232 (gyrA-T83I, parC-S80L); assay: Levofloxacin MIC potentiation; format: cell-based, Pseudomonas aeruginosa; conditions: Pseudomonas aeruginosa, read-out: Levofloxacin MIC
Procedure: as §1

P. aeruginosa ATCC 27853 [5] = assay: Neutropenic murine thigh infection model; format: in vivo, CD-1 mice; conditions: for Mean Log10 CFU (thigh): +24 hr
Procedure: Female CD-1 mice (6–8 weeks old; 22 ± 2 g) were obtained from Envigo Laboratories, quarantined for at least 3 days, and housed 5 per cage in accordance with the approved IACUC protocol (IACUC-2017-0049). Neutropenia was induced by intraperitoneal (IP) administration of cyclophosphamide (Cytoxan) at 150 mg/kg on day 4 and 100 mg/kg on day 1 prior to infection.
Mice were infected intramuscularly (IM) in the right thigh with 0.1 mL of bacterial suspension containing approximately 1 × 10^5–10^6 CFU/mL. […] At 2 h or 24 h post-infection, mice were euthanized by CO2 asphyxiation, and thighs were aseptically excised and placed in 2 mL sterile phosphate-buffered saline (PBS) on ice. Tissue homogenization was performed using a Polytron PT10-35 (12 mm aggregate, Kinematica, Malters, Switzerland).
Plates were incubated overnight at 37 °C, and colonies were enumerated the following day.

P. aeruginosa ATCC 27853 [6] = assay: Neutropenic murine lung infection model; format: in vivo, CD-1 mice; conditions: alone or with TXA11114 30 mg/kg IV QID; for Mean Log10 CFU (lung): +24 hr
Procedure: For the lung infection model, mice were anesthetized by IP injection of 0.15 mL of a ketamine (40 mg/kg) + xylazine (6 mg/kg) mixture and inoculated intranasally (IN) with 0.05 mL of a 4 × 10^8 CFU/mL bacterial suspension applied dropwise to the external nares. Two hours post-infection, mice received test articles IV (EPIs) or SC (levofloxacin). At 2 h or 24 h post-infection, mice were euthanized by CO2 asphyxiation, and lungs were aseptically removed, placed in 2 mL sterile PBS, and homogenized using the same procedure described above. Homogenates were serially diluted and plated (8 µL spots) onto BHI-charcoal and citrate agar, incubated overnight at 37 °C, and colonies were counted the following day.

[7] = test system: multidrug-resistant P. aeruginosa clinical isolates from the CDC-FDA; assay: Levofloxacin MIC potentiation, CDC-FDA isolates; format: cell-based, Pseudomonas aeruginosa; conditions: for MIC: Pseudomonas aeruginosa; for Levofloxacin MIC fold difference, +EPI / Levofloxacin MIC, +EPI: EPI […] (TXA11114, TXA09155) or 50 μg/mL (MC-04,124, PAβN)
Procedure: In a comparative study, the levofloxacin-potentiating activity of TXA11114 was evaluated alongside the well-characterized EPIs PAβN and MC-04,124 using P. aeruginosa clinical isolates obtained from the CDC and FDA Antimicrobial Resistance Isolate Bank and the Walter Reed Army Institute of Research (WRAIR). […] While PAβN has been widely studied in laboratory strains, its activity against the CDC/FDA P. aeruginosa panel has been reported only sparingly, limiting direct cross-study comparisons.
as §1

in vivo = conditions: female, CD-1, mouse, iv
Procedure: Thus, the safety and tolerability of TXA11114 was determined to find an optimum dosing capability. The maximum tolerated dose (MTD) of TXA11114 was assessed in female mice (CD-1, 6–8 weeks old) at the University of North Texas Health Science Center (UNTHSC). TXA11114 was administered IV to groups of three female mice. Mice were administered TXA11114 in the range 30–240 mg/kg (IV bolus). […] As doses are tolerated (not resulting in effects such as mortality, convulsions, or other severe morbidity), they are increased. Survival and general observations as to the tolerability of the administered dose started immediately and continued for a period of 48 h after each dose was recorded.

[8] = levofloxacin 10 mg/kg SC QID, alone or with TXA11114 30 mg/kg IV QID

`C[C@H]1COc2c(N3CCN(C)CC3)c(F)cc3c(=O)c(C(=O)O)cn1c23` [Levofloxacin, levofloxacin] showed an MIC (P. aeruginosa ATCC 27853 [1]; ATCC 27853 parent strain (Table S1), read-out: MIC) of 1 µg/mL, an MIC ([2]; read-out: Levofloxacin MIC alone across panel, 20 MRSN isolates) of at least 8 µg/mL and an MIC ([2]; read-out: Levofloxacin MIC, No EPI, MRSN #994) of 16 µg/mL. For the same molecule, the MIC ([2]; read-out: Levofloxacin MIC, No EPI, MRSN #1344) was 8 µg/mL, the MIC ([2]; read-out: Levofloxacin MIC, No EPI, MRSN #3587) was 8 µg/mL and the MIC ([2]; read-out: Levofloxacin MIC, No EPI, MRSN #3705) was 8 µg/mL. For the same molecule, the MIC ([2]; read-out: Levofloxacin MIC, No EPI, MRSN #5498) was 32 µg/mL, the MIC ([2]; read-out: Levofloxacin MIC, No EPI, MRSN #5519) was 64 µg/mL and the MIC ([2]; read-out: Levofloxacin MIC, No EPI, MRSN #5539) was 16 µg/mL. It also gave an MIC ([2]; read-out: Levofloxacin MIC, No EPI, MRSN #6220) of 128 µg/mL, an MIC ([2]; read-out: Levofloxacin MIC, No EPI, MRSN #6241) of 8 µg/mL and an MIC ([2]; read-out: Levofloxacin MIC, No EPI, MRSN #6678) of 32 µg/mL. It also gave an MIC ([2]; read-out: Levofloxacin MIC, No EPI, MRSN # 6695) of 8 µg/mL, an MIC ([2]; read-out: Levofloxacin MIC, No EPI, MRSN #8130) of 16 µg/mL and an MIC ([2]; read-out: Levofloxacin MIC, No EPI, MRSN #8139) of 8 µg/mL. For the same molecule, the MIC ([2]; read-out: Levofloxacin MIC, No EPI, MRSN #8912) was 16 µg/mL, the MIC ([2]; read-out: Levofloxacin MIC, No EPI, MRSN #8914) was 16 µg/mL and the MIC ([2]; read-out: Levofloxacin MIC, No EPI, MRSN #8915) was 128 µg/mL. It also gave an MIC ([2]; read-out: Levofloxacin MIC, No EPI, MRSN #14981) of 16 µg/mL, an MIC ([2]; read-out: Levofloxacin MIC, No EPI, MRSN #15566) of 8 µg/mL and an MIC ([2]; read-out: Levofloxacin MIC, No EPI, MRSN #16344) of 8 µg/mL. The MIC ([2]; read-out: Levofloxacin MIC, No EPI, MRSN #369569) was 32 µg/mL, the MIC ([3]; ATCC27853, EPIR32) was 0.25 µg/mL and the MIC ([3]; ATCC27853, EPIR38) was 0.5 µg/mL. For the same molecule, the MIC [4] was 256 µg/mL, the “Mean Log10 CFU (thigh)” value (P. aeruginosa ATCC 27853 [5]; [8]) was 7.41 log10 CFU and the “Mean Log10 CFU (thigh)” value (P. aeruginosa ATCC 27853 [5]; levofloxacin 15 mg/kg SC QID, alone or with TXA11114 30 mg/kg IV QID) was 5.97 log10 CFU. For the same molecule, the “Mean Log10 CFU (thigh)” value (P. aeruginosa ATCC 27853 [5]; levofloxacin 20 mg/kg SC QID, alone or with TXA11114 30 mg/kg IV QID) was 4.47 log10 CFU, the “Mean Log10 CFU Change vs +2 hr Control, Δlog10 (treatment-baseline), thigh” value (P. aeruginosa ATCC 27853 [5]; [8]) was 1.33 log10 CFU and the “Mean Log10 CFU (lung)” value (P. aeruginosa ATCC 27853 [6]; levofloxacin 15 mg/kg SC QID) was 5.86 log10 CFU. The “Mean Log10 CFU (lung)” value (P. aeruginosa ATCC 27853 [6]; levofloxacin 30 mg/kg SC QID) was 3.98 log10 CFU, the “Mean Log10 CFU Change vs +2 hr Control, Δlog10 (treatment-baseline), lung” value (P. aeruginosa ATCC 27853 [6]; levofloxacin 15 mg/kg SC QID) was 1.27 log10 CFU and the “Mean Log10 CFU Change vs +24 hr Control, lung” value (P. aeruginosa ATCC 27853 [6]; levofloxacin 15 mg/kg SC QID) was 3.03 log10 CFU. The “Reduction of lung CFU at 24 h post-infection” value (P. aeruginosa ATCC 27853 [6]; levofloxacin 30 mg/kg SC QID) was 0.61 log10 CFU, the MIC ([7]; read-out: Levofloxacin MIC, No EPI, AR-0229) was 64 µg/mL and the MIC ([7]; read-out: Levofloxacin MIC, No EPI, AR-0232) was 8 µg/mL. The MIC ([7]; read-out: Levofloxacin MIC, No EPI, AR-0233) was 4 µg/mL, the MIC ([7]; read-out: Levofloxacin MIC, No EPI, AR-0234) was 8 µg/mL and the MIC ([7]; read-out: Levofloxacin MIC, No EPI, AR-0239) was 32 µg/mL. It also gave an MIC ([7]; read-out: Levofloxacin MIC, No EPI, AR-0242) of 8 µg/mL, an MIC ([7]; read-out: Levofloxacin MIC, No EPI, AR-0244) of 64 µg/mL and an MIC ([7]; read-out: Levofloxacin MIC, No EPI, AR-0246) of 64 µg/mL. It also gave an MIC ([7]; read-out: Levofloxacin MIC, No EPI, AR-0248) of 16 µg/mL, an MIC ([7]; read-out: Levofloxacin MIC, No EPI, AR-0249) of 64 µg/mL and an MIC ([7]; read-out: Levofloxacin MIC, No EPI, AR-0252) of 32 µg/mL. For the same molecule, the MIC ([7]; read-out: Levofloxacin MIC, No EPI, AR-0253) was 2 µg/mL and the MIC ([7]; read-out: Levofloxacin MIC, No EPI, AR-0264) was 64 µg/mL.
With `NC[C@@H]1CN[C@H](CNC(=O)c2cc3ccc(-c4ccc(F)cc4)cc3[nH]2)C1` [TXA09155] the “Fold MIC reduction [LVX/EPI-LVX]” value (P. aeruginosa ATCC 27853 [1]; EPI at […], ATCC 27853) was 16 fold, the MIC (P. aeruginosa ATCC 27853 [1]; EPI alone, ATCC 27853, read-out: EPI MIC) was 50 µg/mL and the LVX MIC (+EPI) (P. aeruginosa ATCC 27853 [1]; levofloxacin MIC with EPI at […], ATCC 27853) was 0.063 µg/mL. The “Improvement of levofloxacin efficacy in murine thigh or lung infection models” value (P. aeruginosa ATCC 27853 [5]; thigh or lung infection models) was “neither TXA01182 nor TXA09155 improved levofloxacin efficacy”, the “Levofloxacin MIC fold difference, +EPI” value ([7]; AR-0229) was 32 fold and the “Levofloxacin MIC, +EPI” value ([7]; AR-0229) was 2 µg/mL. For the same molecule, the “Levofloxacin MIC fold difference, +EPI” value ([7]; AR-0232) was 16 fold, the “Levofloxacin MIC, +EPI” value ([7]; AR-0232) was 0.5 µg/mL and the “Levofloxacin MIC fold difference, +EPI” value ([7]; AR-0233) was 32 fold. For the same molecule, the “Levofloxacin MIC, +EPI” value ([7]; AR-0233) was 0.125 µg/mL, the “Levofloxacin MIC fold difference, +EPI” value ([7]; AR-0234) was 16 fold and the “Levofloxacin MIC, +EPI” value ([7]; AR-0234) was 0.5 µg/mL. For the same molecule, the “Levofloxacin MIC fold difference, +EPI” value ([7]; AR-0239) was 16 fold, the “Levofloxacin MIC, +EPI” value ([7]; AR-0239) was 4 µg/mL and the “Levofloxacin MIC, +EPI” value ([7]; AR-0242) was 1 µg/mL. For the same molecule, the “Levofloxacin MIC, +EPI” value ([7]; AR-0244) was 2 µg/mL, the “Levofloxacin MIC fold difference, +EPI” value ([7]; AR-0246) was 8, (8) fold and the “Levofloxacin MIC, +EPI” value ([7]; AR-0246) was 8, (8) μg/mL. The “Levofloxacin MIC fold difference, +EPI” value ([7]; AR-0248) was 32 fold, the “Levofloxacin MIC, +EPI” value ([7]; AR-0248) was 0.5 µg/mL and the “Levofloxacin MIC fold difference, +EPI” value ([7]; AR-0249) was 32 fold. The “Levofloxacin MIC, +EPI” value ([7]; AR-0249) was 2 µg/mL, the “Levofloxacin MIC fold difference, +EPI” value ([7]; AR-0252) was 64 fold and the “Levofloxacin MIC, +EPI” value ([7]; AR-0252) was 0.5 µg/mL. The “Levofloxacin MIC fold difference, +EPI” value ([7]; AR-0253) was 64 fold, the “Levofloxacin MIC, +EPI” value ([7]; AR-0253) was 0.031 µg/mL and the “Levofloxacin MIC, +EPI” value ([7]; AR-0264) was 1 µg/mL. For the same molecule, the MTD at 48 h (in vivo) was 30 mg/kg.
